These results are taken from article PMC11574021, “CEP192 localises mitotic Aurora-A activity by priming its interaction with TPX2” (The EMBO Journal, 2024).

One assay concerns Aurora-A in U251 cells. The experiment in a line: Immunofluorescence, Aurora-A spindle pole signal intensity, U251. The class given is cell-based, Homo sapiens. Particulars: U251, siRNA 48 h or Aurora-A inhibitor 30 min (250 nM). The protocol:
(§1) Drugs were resuspended in DMSO to the stock concentrations indicated in square brackets.
(§2) For immunofluorescence, 1 × 10^5 cells were seeded in six-well plates and simultaneously transfected with 60 pmol siRNA duplex and 3 µl transfection reagent diluted in 200 µl Opti-MEM serum-free medium. Growth medium was added to a final volume of 2 ml. For western blotting, 1 × 10^6 cells were seeded in 10 cm dishes and transfected with 300 pmol siRNA duplex and 15 µl transfection reagent diluted in 1000 µl Opti-MEM. Growth medium was added to a final volume of 10 ml. Cells were incubated with siRNA for 48 h prior to fixation or harvesting. As a negative control (siControl) Silencer select negative control No.1 siRNA was transfected as above. For TACC3 depletion, where two siRNA duplexes were used, 40 pmol of each was transfected per well.
For siRNA depletion, 1 × 10^5 cells were seeded in six-well plates and transfected as described above for 48 h prior to fixation. For all other experiments, 2.5 × 10^5 cells were seeded in six-well plates and grown for 24 h before fixation. […] Cells in Fig. EV4A were fixed using 4% (wt/v) paraformaldehyde (PFA) in PBS for 12 min, followed by 10 min quenching in 50 mM NH4Cl in PBS and 5 min of permeabilization with 0.2% (v/v) Triton X-100 in PBS, all at room temperature. For centriole staining in Fig. EV4E, cells were fixed in pre-chilled methanol for 10 min at −20 °C, incubated in PBS for 10 min and then 5 min in 0.5% Triton-X-100, 0.5% Tween, 0.05% SDS in PBS (v/v). To observe centromere and kinetochore staining in Fig. 7C and Appendix Fig. S8A, cells were fixed with PTEMF buffer (20 mM PIPES pH 6.8, 0.2% (v/v) Triton X-100, 10 mM EGTA, 1 mM MgCl2, 4% PFA (wt/v) in PBS) for 12 min at room temperature. For all other experiments, cells were fixed in pre-chilled methanol for 5 min at −20 °C. Following fixation, coverslips were blocked in 2% BSA (wt/v), 0.1% Tween (v/v) in PBS, this and all antibody incubation steps were carried out for 1 h at room temperature, unless otherwise stated. Primary and secondary antibody (Life technologies) dilutions were made in 0.1% Tween, PBS, with secondary staining being conducted in the dark. Coverslips were gently washed with three x 2 ml 0.2% Tween, PBS between antibody incubation steps. […]
(§3) Here “area” refers to the area of DAPI-stained DNA, determined by thresholding (default mode) the region of interest. […] The diameter calculated, therefore, refers to that of a circle with equivalent area to the DAPI signal measured previously. The area of the nuclear DAPI signal (Appendix Fig. S6I) was determined by thresholding (as above). […] All fluorescence intensity and area measurements were obtained from maximum intensity z-projections. […]

In assay [1] the test system is Aurora-A-pT288 in U251 cells. The experiment in a line: Immunofluorescence, Aurora-A-pT288 spindle pole signal intensity, U251. The class given is cell-based, Homo sapiens. Particulars: U251, siRNA 48 h or Aurora-A inhibitor 30 min (250 nM). The protocol:
as §1, §2
For siRNA depletion, 1 × 10^5 cells were seeded in six-well plates and transfected as described above for 48 h prior to fixation. For all other experiments, 2.5 × 10^5 cells were seeded in six-well plates and grown for 24 h before fixation. […] Cells in Fig. EV4A were fixed using 4% (wt/v) paraformaldehyde (PFA) in PBS for 12 min, followed by 10 min quenching in 50 mM NH4Cl in PBS and 5 min of permeabilization with 0.2% (v/v) Triton X-100 in PBS, all at room temperature. For centriole staining in Fig. EV4E, cells were fixed in pre-chilled methanol for 10 min at −20 °C, incubated in PBS for 10 min and then 5 min in 0.5% Triton-X-100, 0.5% Tween, 0.05% SDS in PBS (v/v). […]
as §3

In the case of 5′-CAAACAACUUGGAAAUCGAtt-3′ [siCEP192], the “spindle (pole)-associated Aurora-A level” value with Aurora-A in U251 cells is “significant drop”. In addition, the “centrosomal/spindle pole Aurora-A-pT288 signal” value in assay [1] is “diminished the intensity of pT288 signal”.
On to `COc1cc(Nc2ncc3c(n2)-c2ccc(Cl)cc2C(c2c(F)cccc2OC)=NC3)ccc1C(=O)O` [Alisertib], for which the “spindle (pole)-associated Aurora-A level” value in the assay with Aurora-A in U251 cells (listed as Aurora-A inhibition) is “significant drop”. The “centrosomal/spindle pole Aurora-A-pT288 signal” value in assay [1] is “obliterated”.
Take 5′-CGGUAGUGAUAAAAGCUCAtt-3′ [siTPX2]: the figures for the “spindle (pole)-associated Aurora-A level” value with Aurora-A in U251 cells (listed as TPX2 depletion) and in the assay on Aurora-A in U251 cells (listed as depletion of TPX2) were “complete loss of Aurora-A from mitotic spindles” and “diminished levels of spindle pole-associated Aurora-A”, respectively. The “centrosomal/spindle pole Aurora-A-pT288 signal” value in assay [1] is given as “diminished the intensity of pT288 signal”.
